Calls of active or inactive are those of the source. No cut-off for these calls is given here.
Experiments:
[1] = system: Receptor-type tyrosine-protein kinase FLT3 (Homo sapiens), P36888 [UNDEFINED MUTATION]; assay: Inhibition of FLT3 in human MV4-11 cells harbouring FLT3-ITD mutant assessed as effect on AKT protein level at 1 to 1000 nM measured after 2 hrs by Western blot analysis; type: cell-based; conditions: dose 1-1000 nM
HL-60 = assay: cells; conditions: Homo sapiens, HL-60, 72 h
Description: Antiproliferative activity against human HL-60 cells assessed as inhibition of cell growth incubated for 72 hrs by celltiter-glo luminescent cell viability assay

[2] = Half life in monkey plasma at 1 mg/kg, iv measured up to 24 hrs by LC-MS/MS analysis; type: ADME, organism-based, Macaca mulatta; conditions: rhesus monkey
[3] = AUC (0 to t) in NOD/SCID mouse plasma xenografted with human MV4-11 cells at […], po measured up to 24 hrs by LC-MS/MS analysis; type: ADME, organism-based; conditions: dose 1.5 mg/kg
[4] = Tmax in NOD/SCID mouse plasma xenografted with human MV4-11 cells at […], po measured up to 24 hrs by LC-MS/MS analysis; type: ADME, organism-based; conditions: dose 1.5 mg/kg
[5] = Oral bioavailability in dog plasma at 5 mg/kg measured up to 24 hrs by LC-MS/MS analysis; type: ADME, organism-based, Canis lupus familiaris
[6] = target: Proto-oncogene tyrosine-protein kinase receptor Ret (Homo sapiens, UniProt P07949); assay: Inhibition of human RET by biochemical kinase binding assay
[7] = Cmax in NOD/SCID mouse plasma xenografted with human MV4-11 cells at 0.5 mg/kg, po measured up to 24 hrs by LC-MS/MS analysis; type: ADME, organism-based
[8] = Half life in rat plasma at 5 mg/kg, po measured up to 24 hrs by LC-MS/MS analysis; type: ADME, organism-based
RPMI-8226 = assay: cells; conditions: Homo sapiens, RPMI-8226, 72 h
Description: Antiproliferative activity against human RPMI-8226 cells assessed as inhibition of cell growth incubated for 72 hrs by celltiter-glo luminescent cell viability assay

BaF3 [9] = assay: Antiproliferative activity against mouse BaF3 cells harbouring FLT3-D835V mutant assessed as inhibition of cell growth incubated for 72 hrs by celltiter-glo luminescent cell viability assay; type: functional, cell-based; conditions: BaF3, 72 h
[10] = Antitumor activity against human […] cells harbouring FLT3-ITD xenografted in NOD/SCID mouse model assessed as tumor regression rate at 1.5 to 4.5 mg/kg/day, po administered for 21 days and measured for 31 days post dose by caliper analysis relative to control; type: functional, MV4-11; conditions: dose lower […], dose upper 4.5 mg/kg/day, time 52 day
BaF3 [11] = assay: cells; conditions: Mus musculus, BaF3, 72 h
BaF3 [12] = assay: cells; conditions: Mus musculus, BaF3, 72 h; remark: listed apart in the source
[13] = target: Mast/stem cell growth factor receptor Kit (Homo sapiens, UniProt P10721, Y823D); assay: Inhibition of human KIT Y823D mutant by biochemical kinase binding assay
[14] = system: Receptor-type tyrosine-protein kinase FLT3 (Homo sapiens), P36888 [UNDEFINED MUTATION]; assay: Inhibition of FLT3 in human MV4-11 cells harbouring FLT3-ITD mutant assessed as inhibition of ERK phosphorylation level measured after 2 hrs by Western blot analysis; type: cell-based; conditions: dose 1-1000 nM
[15] = Clearance in rat plasma at 5 mg/kg, po measured up to 24 hrs by LC-MS/MS analysis; type: ADME, organism-based
BaF3 [16] = assay: Antiproliferative activity against mouse BaF3 cells harbouring FLT3-ITD-Y842R mutant assessed as inhibition of cell growth incubated for 72 hrs by celltiter-glo luminescent cell viability assay; type: functional, cell-based; conditions: BaF3, 72 h
[17] = Cmax in NOD/SCID mouse tumor xenografted with human MV4-11 cells at 4.5 mg/kg, po measured up to 24 hrs by LC-MS/MS analysis; type: ADME, organism-based, Neoplasm
[18] = AUC (0 to t) in NOD/SCID mouse tumor xenografted with human MV4-11 cells at 0.5 mg/kg, po measured up to 24 hrs by LC-MS/MS analysis; type: ADME, organism-based, Neoplasm
Cytochrome P450 1A2 = Cytochrome P450 1A2 (Homo sapiens, UniProt P05177); assay: Inhibition of CYP1A2 in human liver microsomes by UPLC-MS/MS analysis; type: ADME, Microsome
Cytochrome P450 1A2, sequence (P05177 whole entry): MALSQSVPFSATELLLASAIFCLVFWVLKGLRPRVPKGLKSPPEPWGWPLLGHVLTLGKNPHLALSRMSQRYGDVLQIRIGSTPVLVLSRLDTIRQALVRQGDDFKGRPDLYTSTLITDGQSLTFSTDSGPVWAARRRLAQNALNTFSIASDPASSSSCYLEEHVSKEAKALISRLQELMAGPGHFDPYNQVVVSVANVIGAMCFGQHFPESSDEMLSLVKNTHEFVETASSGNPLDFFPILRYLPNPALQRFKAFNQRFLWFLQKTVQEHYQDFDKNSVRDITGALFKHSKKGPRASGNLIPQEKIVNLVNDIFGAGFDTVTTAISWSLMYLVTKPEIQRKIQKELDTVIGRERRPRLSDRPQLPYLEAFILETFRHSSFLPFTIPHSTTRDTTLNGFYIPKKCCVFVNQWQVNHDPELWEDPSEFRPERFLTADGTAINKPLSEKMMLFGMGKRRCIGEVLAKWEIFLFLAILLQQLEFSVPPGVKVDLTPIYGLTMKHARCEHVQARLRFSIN

OVCAR-3 = assay: cells; conditions: Homo sapiens, OVCAR-3, 72 h
Description: Antiproliferative activity against human OVCAR-3 cells assessed as inhibition of cell growth incubated for 72 hrs by celltiter-glo luminescent cell viability assay

K562 = assay: cells; conditions: Homo sapiens, K562, 72 h
Description: Antiproliferative activity against human K562 cells assessed as inhibition of cell growth incubated for 72 hrs by celltiter-glo luminescent cell viability assay

Cytochrome P450 2D6 = Cytochrome P450 2D6 (Homo sapiens, UniProt P10635); assay: Inhibition of CYP2D6 in human liver microsomes by UPLC-MS/MS analysis; type: ADME, Microsome
Cytochrome P450 2D6, sequence (P10635 whole entry): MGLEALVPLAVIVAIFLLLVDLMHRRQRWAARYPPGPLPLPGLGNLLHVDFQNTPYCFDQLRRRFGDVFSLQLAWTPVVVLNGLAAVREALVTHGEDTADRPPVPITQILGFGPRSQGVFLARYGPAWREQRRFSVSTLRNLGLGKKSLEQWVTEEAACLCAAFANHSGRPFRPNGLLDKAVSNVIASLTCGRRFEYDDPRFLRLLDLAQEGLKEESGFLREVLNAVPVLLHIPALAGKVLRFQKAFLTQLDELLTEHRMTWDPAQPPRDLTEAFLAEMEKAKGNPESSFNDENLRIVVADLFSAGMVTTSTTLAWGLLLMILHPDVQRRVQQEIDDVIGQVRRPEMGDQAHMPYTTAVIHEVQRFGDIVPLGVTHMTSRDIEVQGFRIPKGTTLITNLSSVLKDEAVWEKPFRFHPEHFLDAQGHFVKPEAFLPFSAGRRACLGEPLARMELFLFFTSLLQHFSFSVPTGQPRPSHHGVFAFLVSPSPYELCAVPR

[19] = Antitumor activity against human […] cells harbouring FLT3-ITD xenografted in NOD/SCID mouse model assessed as tumor regression rate at 20 mg/kg/day, po measured for 8 days by caliper analysis relative to control; type: functional, MV4-11; conditions: time 8 day
U-87 MG = assay: cells; conditions: Homo sapiens, 72 h
Description: Antiproliferative activity against human U-87 MG cells assessed as inhibition of cell growth incubated for 72 hrs by celltiter-glo luminescent cell viability assay

[20] = Volume of distribution at steady state in mouse plasma at 2 mg/kg, iv measured up to 24 hrs by LC-MS/MS analysis; type: ADME, organism-based; conditions: read-out: Vdss
Cytochrome P450 2C19 = Cytochrome P450 2C19 (Homo sapiens, UniProt P33261); assay: Inhibition of CYP2C19 in human liver microsomes by UPLC-MS/MS analysis; type: ADME, Microsome
Cytochrome P450 2C19, sequence (P33261 whole entry): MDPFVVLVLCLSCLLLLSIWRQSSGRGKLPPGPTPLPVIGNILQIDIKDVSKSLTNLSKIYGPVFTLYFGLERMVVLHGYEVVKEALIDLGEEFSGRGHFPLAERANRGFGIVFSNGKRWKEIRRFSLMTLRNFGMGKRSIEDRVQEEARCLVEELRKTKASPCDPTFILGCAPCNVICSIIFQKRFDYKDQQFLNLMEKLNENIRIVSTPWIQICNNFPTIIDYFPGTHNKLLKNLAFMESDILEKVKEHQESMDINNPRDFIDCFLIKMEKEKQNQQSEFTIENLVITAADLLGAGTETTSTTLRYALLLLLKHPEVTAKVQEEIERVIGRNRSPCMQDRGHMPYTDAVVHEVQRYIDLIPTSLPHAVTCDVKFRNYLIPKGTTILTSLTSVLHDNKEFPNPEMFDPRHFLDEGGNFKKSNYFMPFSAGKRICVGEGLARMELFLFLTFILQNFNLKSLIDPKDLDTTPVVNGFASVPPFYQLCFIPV

MOLM-13 = assay: Antitumor activity against human MOLM-13 cells xenografted in NOD/SCID mouse model assessed as tumor growth inhibition at 4.5 mg/kg/day, po by caliper analysis relative to control; type: functional; conditions: read-out: TGI
[21] = Tmax in dog plasma at 1 mg/kg, iv measured up to 24 hrs by LC-MS/MS analysis; type: ADME, organism-based, Canis lupus familiaris
BaF3 [22] = assay: Antiproliferative activity against mouse BaF3 cells harbouring FLT3-ITD-Y842H mutant assessed as inhibition of cell growth incubated for 72 hrs by celltiter-glo luminescent cell viability assay; type: functional, cell-based; conditions: BaF3, 72 h
[23] = target: Discoidin domain-containing receptor 2 (Homo sapiens, UniProt Q16832, T654M); assay: Inhibition of human DDR2 T654M mutant by biochemical kinase binding assay
Discoidin domain-containing receptor 2, sequence (Q16832 22-855 T654M limits assumed): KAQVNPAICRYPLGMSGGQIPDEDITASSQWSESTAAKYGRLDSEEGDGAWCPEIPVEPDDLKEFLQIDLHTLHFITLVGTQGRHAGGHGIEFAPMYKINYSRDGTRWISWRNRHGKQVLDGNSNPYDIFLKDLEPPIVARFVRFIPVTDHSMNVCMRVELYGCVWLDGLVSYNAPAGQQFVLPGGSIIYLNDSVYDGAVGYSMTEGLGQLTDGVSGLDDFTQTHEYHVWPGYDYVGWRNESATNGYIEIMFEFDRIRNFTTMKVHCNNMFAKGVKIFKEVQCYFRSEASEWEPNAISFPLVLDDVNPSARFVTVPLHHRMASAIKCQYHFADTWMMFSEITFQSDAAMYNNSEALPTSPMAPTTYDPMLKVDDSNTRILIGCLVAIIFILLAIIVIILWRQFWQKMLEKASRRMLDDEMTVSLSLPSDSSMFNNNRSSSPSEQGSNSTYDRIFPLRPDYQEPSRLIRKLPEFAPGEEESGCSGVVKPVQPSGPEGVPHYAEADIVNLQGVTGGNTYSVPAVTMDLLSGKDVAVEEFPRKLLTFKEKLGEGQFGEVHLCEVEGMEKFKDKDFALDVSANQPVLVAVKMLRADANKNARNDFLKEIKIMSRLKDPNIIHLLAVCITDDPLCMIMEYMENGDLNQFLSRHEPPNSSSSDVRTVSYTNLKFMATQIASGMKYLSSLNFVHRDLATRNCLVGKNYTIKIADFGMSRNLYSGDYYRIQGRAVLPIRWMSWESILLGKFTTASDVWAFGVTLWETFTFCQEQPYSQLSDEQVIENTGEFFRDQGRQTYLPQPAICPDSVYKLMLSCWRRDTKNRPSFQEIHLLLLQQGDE

Cytochrome P450 3A4 = Cytochrome P450 3A4 (Homo sapiens, UniProt P08684); assay: Inhibition of CYP3A4 in human liver microsomes by UPLC-MS/MS analysis; type: ADME, Microsome
Cytochrome P450 3A4, sequence (P08684 whole entry): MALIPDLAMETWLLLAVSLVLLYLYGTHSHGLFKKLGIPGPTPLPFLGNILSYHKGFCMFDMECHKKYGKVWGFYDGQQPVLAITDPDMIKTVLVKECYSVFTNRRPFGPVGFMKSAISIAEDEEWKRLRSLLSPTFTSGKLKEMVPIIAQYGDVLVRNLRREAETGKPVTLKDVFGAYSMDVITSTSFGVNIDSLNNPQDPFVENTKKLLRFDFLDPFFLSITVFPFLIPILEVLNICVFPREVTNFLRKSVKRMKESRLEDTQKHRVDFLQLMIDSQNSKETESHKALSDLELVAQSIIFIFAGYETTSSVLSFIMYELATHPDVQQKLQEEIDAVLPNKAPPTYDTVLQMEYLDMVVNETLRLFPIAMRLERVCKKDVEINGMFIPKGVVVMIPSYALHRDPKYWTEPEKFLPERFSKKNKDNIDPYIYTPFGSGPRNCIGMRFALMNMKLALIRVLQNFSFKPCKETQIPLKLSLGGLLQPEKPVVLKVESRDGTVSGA

BaF3 [24] = assay: Antiproliferative activity against mouse BaF3 cells harbouring FLT3-ITD-D835Y mutant assessed as inhibition of cell growth incubated for 72 hrs by celltiter-glo luminescent cell viability assay; type: functional, cell-based; conditions: BaF3, 72 h
PC-3 = assay: cells; conditions: Homo sapiens, PC-3, 72 h
Description: Antiproliferative activity against human PC-3 cells assessed as inhibition of cell growth incubated for 72 hrs by celltiter-glo luminescent cell viability assay

[25] = system: Receptor-type tyrosine-protein kinase FLT3 (Homo sapiens), P36888 [UNDEFINED MUTATION]; assay: Inhibition of FLT3 in human MV4-11 cells harbouring FLT3-ITD mutant assessed as effect on FLT3 protein level at 1 to 1000 nM measured after 2 hrs by Western blot analysis; type: cell-based; conditions: dose 1-1000 nM
Cytochrome P450 2B6 = Cytochrome P450 2B6 (Homo sapiens, UniProt P20813); assay: Inhibition of CYP2B6 in human liver microsomes by UPLC-MS/MS analysis; type: ADME, Microsome
[26] = target: Platelet-derived growth factor receptor beta (Homo sapiens, UniProt P09619); assay: Inhibition of human PDGFR beta by biochemical kinase binding assay
Platelet-derived growth factor receptor beta, sequence (P09619 whole entry): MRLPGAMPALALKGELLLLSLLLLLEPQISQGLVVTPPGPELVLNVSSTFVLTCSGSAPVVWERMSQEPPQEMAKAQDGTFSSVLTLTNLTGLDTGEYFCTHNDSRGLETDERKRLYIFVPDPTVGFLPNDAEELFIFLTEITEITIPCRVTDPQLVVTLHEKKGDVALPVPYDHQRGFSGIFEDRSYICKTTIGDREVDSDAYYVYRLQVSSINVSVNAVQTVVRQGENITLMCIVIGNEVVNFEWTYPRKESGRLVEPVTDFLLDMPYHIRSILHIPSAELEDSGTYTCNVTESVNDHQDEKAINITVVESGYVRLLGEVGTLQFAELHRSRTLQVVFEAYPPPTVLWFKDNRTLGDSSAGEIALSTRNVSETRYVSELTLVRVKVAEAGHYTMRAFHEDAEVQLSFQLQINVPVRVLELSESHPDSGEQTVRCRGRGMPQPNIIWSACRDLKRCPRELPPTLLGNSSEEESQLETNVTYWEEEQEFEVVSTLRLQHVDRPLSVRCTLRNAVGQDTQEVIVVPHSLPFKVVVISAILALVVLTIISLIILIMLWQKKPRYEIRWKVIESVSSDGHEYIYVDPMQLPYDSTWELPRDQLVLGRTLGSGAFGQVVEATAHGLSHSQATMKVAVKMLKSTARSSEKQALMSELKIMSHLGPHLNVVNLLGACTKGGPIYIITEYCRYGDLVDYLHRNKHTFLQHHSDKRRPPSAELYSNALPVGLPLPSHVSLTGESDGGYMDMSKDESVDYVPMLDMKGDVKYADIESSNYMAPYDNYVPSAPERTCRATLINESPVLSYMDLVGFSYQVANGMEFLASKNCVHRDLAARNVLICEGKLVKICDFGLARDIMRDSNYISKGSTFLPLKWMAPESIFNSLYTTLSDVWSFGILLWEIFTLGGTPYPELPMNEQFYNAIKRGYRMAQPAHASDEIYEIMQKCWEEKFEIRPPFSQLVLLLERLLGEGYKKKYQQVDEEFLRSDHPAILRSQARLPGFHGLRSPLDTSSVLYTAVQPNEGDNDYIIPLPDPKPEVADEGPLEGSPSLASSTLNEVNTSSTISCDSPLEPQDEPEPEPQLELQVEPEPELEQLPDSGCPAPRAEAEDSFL

[27] = Clearance in dog plasma at 1 mg/kg, iv measured up to 24 hrs by LC-MS/MS analysis; type: ADME, organism-based, Canis lupus familiaris

Receptor-type tyrosine-protein kinase FLT3 (Homo sapiens), P36888 [UNDEFINED MUTATION], sequence (P36888 whole entry, looked up, change not shown): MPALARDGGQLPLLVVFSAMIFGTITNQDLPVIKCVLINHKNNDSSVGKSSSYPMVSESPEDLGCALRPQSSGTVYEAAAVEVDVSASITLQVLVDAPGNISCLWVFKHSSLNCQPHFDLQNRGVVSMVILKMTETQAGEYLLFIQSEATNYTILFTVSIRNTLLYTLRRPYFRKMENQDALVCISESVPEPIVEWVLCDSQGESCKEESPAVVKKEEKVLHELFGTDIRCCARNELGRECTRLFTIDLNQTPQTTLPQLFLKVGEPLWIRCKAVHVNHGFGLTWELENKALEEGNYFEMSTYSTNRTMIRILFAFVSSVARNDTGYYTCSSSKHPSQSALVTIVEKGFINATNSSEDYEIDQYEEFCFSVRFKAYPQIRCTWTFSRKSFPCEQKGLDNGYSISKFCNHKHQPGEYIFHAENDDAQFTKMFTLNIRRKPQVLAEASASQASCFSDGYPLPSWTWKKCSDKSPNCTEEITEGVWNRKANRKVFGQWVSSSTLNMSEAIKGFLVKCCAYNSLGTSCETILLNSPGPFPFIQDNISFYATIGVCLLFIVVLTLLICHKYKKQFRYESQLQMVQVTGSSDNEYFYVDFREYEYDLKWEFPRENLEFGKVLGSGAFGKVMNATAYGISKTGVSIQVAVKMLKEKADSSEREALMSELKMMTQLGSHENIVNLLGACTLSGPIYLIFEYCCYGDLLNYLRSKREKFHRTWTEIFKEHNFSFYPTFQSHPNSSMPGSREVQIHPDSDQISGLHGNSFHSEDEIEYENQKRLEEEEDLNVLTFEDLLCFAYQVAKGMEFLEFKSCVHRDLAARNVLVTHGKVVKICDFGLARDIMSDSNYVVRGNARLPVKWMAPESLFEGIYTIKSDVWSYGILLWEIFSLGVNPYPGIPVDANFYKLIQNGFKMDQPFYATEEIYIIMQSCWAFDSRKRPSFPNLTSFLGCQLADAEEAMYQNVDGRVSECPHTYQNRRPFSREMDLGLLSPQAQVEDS

Question: For `CC(C)(C)c1cc(NC(=O)Nc2ccc(C#Cc3ccc(OCCCN4CCOCC4)cc3)cc2)no1`, which inhibition [1] is on record?
Answer: inactive

Question: And the IC50 (HL-60)?
Answer: > 10000 nM

Question: And the half-life [2]?
Answer: 13.1 h

Question: What about the AUC(0-t) at 24 h [3] of the same compound?
Answer: 208 ng·h/mL

Question: What about the Tmax at 24 h [4] of the same compound?
Answer: 1 h

Question: What about the bioavailability [5] of the same compound?
Answer: 71.9%

Question: What about the IC50 [6] of the same compound?
Answer: 110 nM

Question: What about the Cmax [7] of the same compound?
Answer: 20.5 ng/mL

Question: And the half-life [8]?
Answer: 4.45 h

Question: And the IC50 (RPMI-8226)?
Answer: > 10000 nM

Question: And the IC50 (BaF3 [9])?
Answer: 37.4 nM

Question: What about the Activity [10] of the same compound?
Answer: 100%

Question: What about the IC50 (BaF3 [11]) of the same compound?
Answer: 4.1 nM

Question: What about the IC50 (BaF3 [12]) of the same compound?
Answer: 5.8 nM

Question: And the IC50 [13]?
Answer: 283 nM

Question: And the inhibition [14]?
Answer: Dose-dependent-effect

Question: What about the CL/F [15] of the same compound?
Answer: 6.67 mL/min/kg

Question: And the IC50 (BaF3 [16])?
Answer: 21.8 nM

Question: And the Cmax [17]?
Answer: 307 ng/mL

Question: What about the AUC(0-t) at 24 h [18] of the same compound?
Answer: 380 ng·h/mL

Question: And the IC50 (Cytochrome P450 1A2)?
Answer: > 33300 nM

Question: What about the IC50 (OVCAR-3) of the same compound?
Answer: > 10000 nM

Question: And the IC50 (K562)?
Answer: > 10000 nM

Question: And the IC50 (Cytochrome P450 2D6)?
Answer: > 33300 nM

Question: And the Activity [19]?
Answer: 85.4%

Question: And the IC50 (U-87 MG)?
Answer: > 10000 nM

Question: And the Vd [20]?
Answer: 1.36 L/kg

Question: And the IC50 (Cytochrome P450 2C19)?
Answer: > 33300 nM

Question: What about the inhibition in vivo at 4.5 mg/kg/day (MOLM-13) of the same compound?
Answer: 94%

Question: And the Tmax [21]?
Answer: 4.98 min

Question: What about the IC50 (BaF3 [22]) of the same compound?
Answer: 38 nM

Question: What about the IC50 [23] of the same compound?
Answer: 422 nM

Question: And the IC50 (Cytochrome P450 3A4)?
Answer: > 33300 nM

Question: What about the IC50 (BaF3 [24]) of the same compound?
Answer: 47.6 nM

Question: And the IC50 (PC-3)?
Answer: 7000 nM

Question: And the inhibition [25]?
Answer: inactive

Question: And the IC50 (Cytochrome P450 2B6)?
Answer: > 33300 nM

Question: And the IC50 [26]?
Answer: 1630 nM

Question: And the clearance [27]?
Answer: 11.3 mL/min/kg
